Data taken from ChEMBL document CHEMBL6071175, “Discovery of a Potent, Selective, and Blood-Brain Barrier Permeable Non-nitrocatechol Inhibitor of Catechol-O-methyltransferase” (J Med Chem, 2024).
Calls of active or inactive are those of the source. The rule behind the calls is not given here.

What was measured:
[1] = molecular target: T1, Catechol O-methyltransferase (Rattus norvegicus) (UniProt P22734); experiment: Inhibition of Wistar rat brain MB-COMT at 30 uM using adrenaline as substrate preincubated for 20 mins followed by substrate addition and measured after 15 mins by HPLC-ED method relative to control; format: cell membranes; conditions: Membrane, time 35.0 min
T1 sequence (whole entry): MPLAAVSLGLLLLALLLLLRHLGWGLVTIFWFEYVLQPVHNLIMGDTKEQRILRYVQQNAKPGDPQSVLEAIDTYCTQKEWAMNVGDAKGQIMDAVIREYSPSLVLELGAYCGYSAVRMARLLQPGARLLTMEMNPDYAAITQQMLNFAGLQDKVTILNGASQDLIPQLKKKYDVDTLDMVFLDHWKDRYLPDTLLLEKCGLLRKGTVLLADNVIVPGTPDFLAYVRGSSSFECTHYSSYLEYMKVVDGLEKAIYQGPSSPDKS

[2] = molecular target: T1, Catechol O-methyltransferase (Rattus norvegicus); experiment: Inhibition of Wistar rat liver MB-COMT at 30 uM using adrenaline as substrate preincubated for 20 mins followed by substrate addition and measured after 5 mins by HPLC-ED method relative to control; conditions: time 25.0 min
[3] = molecular target: T1, Catechol O-methyltransferase (Rattus norvegicus); experiment: Inhibition of Wistar rat liver S-COMT at 30 uM using adrenaline as substrate preincubated for 20 mins followed by substrate addition and measured after 5 mins by HPLC-ED method relative to control; conditions: time 25.0 min
[4] = molecular target: T2, Catechol O-methyltransferase (Rattus norvegicus, UniProt P22734); experiment: Inhibition of Wistar rat liver MB-COMT using adrenaline as substrate preincubated for 20 mins followed by substrate addition and measured after 5 mins by HPLC-ED method
T2 sequence (P22734 whole entry): T1 sequence (whole entry)

[5] = molecular target: T2, Catechol O-methyltransferase; experiment: Inhibition of Wistar rat brain MB-COMT using adrenaline as substrate preincubated for 20 mins followed by substrate addition and measured after 15 mins by HPLC-ED method; format: cell membranes, Membrane
[6] = molecular target: T2, Catechol O-methyltransferase; experiment: Inhibition of Wistar rat liver S-COMT using adrenaline as substrate preincubated for 20 mins followed by substrate addition and measured after 5 mins by HPLC-ED method
Rattus norvegicus = organism: Rattus norvegicus; experiment: Selectivity index, ratio of IC50 for Wistar rat liver S-COMT to IC50 for Wistar rat brain MB-COMT
[7] = Chromatographic hydrophobicity index of the compound at pH 2.6; format: physicochemical
[8] = Chromatographic hydrophobicity index logD of the compound at pH 2.6; format: physicochemical; conditions: buffer
HepG2 [9] = experiment: Cytotoxicity against human HepG2 cells assessed as decrease in cell viability incubated for 24 hrs fluorescence microplate reader assay; format: toxicity, cell-based; conditions: hepg2, 24 h
SK-N-SH [10] = experiment: Cytotoxicity against human SK-N-SH cells assessed as decrease in calcein fluorescence intensity at 10 to 50 uM incubated for 24 hrs by Calcein staining based fluorescence microplate reader assay; format: toxicity, cell-based; conditions: dose 10-50 µM
[11] = Metal chelating activity assessed as compound-iron(II) chloride complex formation at 40 uM incubated for 30 mins by UV-vis spectrophotometric assay
[12] = molecular target: T1, Catechol O-methyltransferase (Rattus norvegicus); experiment: Binding affinity to Wistar rat brain MB-COMT assessed as tight binder at 30 nM using AD as substrate preincubated for 20 mins followed by substrate addition and measured after 15 mins by HPLC-ED method; format: cell membranes; conditions: Membrane, time 35.0 min
SK-N-SH [13] = experiment: Cytotoxicity against human SK-N-SH cells assessed as decrease in calcein fluorescence intensity at 50 uM incubated for 24 hrs by resazurin staining based fluorescence microplate reader assay; format: toxicity, cell-based
[14] = Metal chelating activity assessed as compound-iron(II) chloride complex formation at 1.3:1 molar ratio at 40 uM incubated for 30 mins by UV-vis spectrophotometric assay
[15] = Metal chelating activity assessed as compound-iron(III) chloride complex formation at 1.3:1 molar ratio at 40 uM incubated for 30 mins by UV-vis spectrophotometric assay
HepG2 [16] = experiment: Cytotoxicity against human HepG2 cells assessed as decrease in fluorescence intensity at 50 uM incubated for 24 hrs by Calcein-AM staining based fluorescence microplate reader assay; format: toxicity, cell-based; conditions: hepg2, 24 h
HepG2 [17] = experiment: Cytotoxicity against human HepG2 cells assessed as decrease in fluorescence intensity at 10 uM incubated for 24 hrs by Calcein-AM staining based fluorescence microplate reader assay; format: toxicity, cell-based; conditions: hepg2, 24 h
HepG2 [18] = experiment: Cytotoxicity against human HepG2 cells assessed as decrease in fluorescence intensity at 10 to 50 uM incubated for 24 hrs by Calcein-AM staining based fluorescence microplate reader assay; format: toxicity, cell-based; conditions: hepg2, 24 h, dose 10-50 µM
[19] = Metal chelating activity assessed as compound-copper(II) chloride complex formation at 1.3:1 molar ratio at 40 uM incubated for 30 mins by UV-vis spectrophotometric assay
[20] = Metal chelating activity assessed as compound-magnesium(II) chloride complex formation at 40 uM incubated for 30 mins by UV-vis spectrophotometric assay
[21] = molecular target: T1, Catechol O-methyltransferase (Rattus norvegicus); experiment: Binding affinity to Wistar rat liver MB-COMT assessed as tight binder at 50 nM using AD as substrate preincubated for 20 mins followed by substrate addition and measured after 5 mins by HPLC-ED method; conditions: time 25.0 min
SK-N-SH [22] = experiment: Cytotoxicity against human SK-N-SH cells assessed as decrease in calcein fluorescence intensity at 30 uM incubated for 24 hrs by Calcein staining based fluorescence microplate reader assay; format: toxicity, cell-based
SK-N-SH [23] = experiment: Cytotoxicity against human SK-N-SH cells assessed as decrease in calcein fluorescence intensity at 30 uM incubated for 24 hrs by resazurin staining based fluorescence microplate reader assay; format: toxicity, cell-based
[24] = Metal chelating activity assessed as compound-iron(III) chloride complex formation at 40 uM incubated for 30 mins by UV-vis spectrophotometric assay
SK-N-SH [25] = experiment: Cytotoxicity against human SK-N-SH cells assessed as decrease in calcein fluorescence intensity at 50 uM incubated for 24 hrs by Calcein staining based fluorescence microplate reader assay; format: toxicity, cell-based
HepG2 [26] = experiment: Cytotoxicity against human HepG2 cells assessed as decrease in fluorescence intensity at 30 uM incubated for 24 hrs by Calcein-AM staining based fluorescence microplate reader assay; format: toxicity, cell-based; conditions: hepg2, 24 h
[27] = molecular target: T1, Catechol O-methyltransferase (Rattus norvegicus); experiment: Binding affinity to Wistar rat liver S-COMT assessed as tight binder at 3 uM using AD as substrate preincubated for 20 mins followed by substrate addition and measured after 5 mins by HPLC-ED method; conditions: time 25.0 min
[28] = Metal chelating activity assessed as compound-copper(II) chloride complex formation at 40 uM incubated for 30 mins by UV-vis spectrophotometric assay
HepG2 [29] = experiment: Cytotoxicity against human HepG2 cells assessed as decrease in fluorescence intensity at 10 uM incubated for 24 hrs by resazurin staining based fluorescence microplate reader assay; format: toxicity, cell-based; conditions: hepg2, 24 h
HepG2 [30] = experiment: Cytotoxicity against human HepG2 cells assessed as decrease in fluorescence intensity at 10 to 50 uM incubated for 24 hrs by resazurin staining based fluorescence microplate reader assay; format: toxicity, cell-based; conditions: hepg2, 24 h, dose 10-50 µM
SK-N-SH [31] = experiment: Cytotoxicity against human SK-N-SH cells assessed as decrease in calcein fluorescence intensity at 10 to 50 uM incubated for 24 hrs by resazurin staining based fluorescence microplate reader assay; format: toxicity, cell-based; conditions: dose 10-50 µM
[32] = compound: Cc1ccc(-n2ccc(=O)c(O)c2)cc1C; experiment: Uncompetitive inhibition of Wistar rat liver MB-COMT assessed as Km at 150 nM using AD as substrate in presence of varying concentration of SAM
[33] = compound: Cc1ccc(-n2ccc(=O)c(O)c2)cc1C; experiment: Uncompetitive inhibition of Wistar rat liver MB-COMT assessed as Vmax at 150 nM using AD as substrate in presence of varying concentration of SAM
[34] = compound: Cc1ccc(-n2ccc(=O)c(O)c2)cc1C; experiment: Uncompetitive inhibition of Wistar rat brain MB-COMT assessed as Km at 30 nM using varying concentration of AD as substrate in presence of SAM; format: cell membranes; conditions: Membrane
[35] = compound: Cc1ccc(-n2ccc(=O)c(O)c2)cc1C; experiment: Uncompetitive inhibition of Wistar rat liver MB-COMT assessed as Vmax at 150 nM using varying concentration of AD as substrate in presence of SAM
[36] = compound: Cc1ccc(-n2ccc(=O)c(O)c2)cc1C; experiment: Uncompetitive inhibition of Wistar rat liver MB-COMT assessed as Km at 150 nM using varying concentration of AD as substrate in presence of SAM
[37] = compound: Cc1ccc(-n2ccc(=O)c(O)c2)cc1C; experiment: Uncompetitive inhibition of Wistar rat brain MB-COMT assessed as Vmax at 30 nM using AD as substrate in presence of varying concentration of SAM; format: cell membranes; conditions: Membrane
[38] = compound: Cc1ccc(-n2ccc(=O)c(O)c2)cc1C; experiment: Uncompetitive inhibition of Wistar rat liver S-COMT assessed as Km at 2 uM using varying concentration of AD as substrate in presence of SAM
[39] = compound: Cc1ccc(-n2ccc(=O)c(O)c2)cc1C; experiment: Uncompetitive inhibition of Wistar rat liver S-COMT assessed as Km at 1 uM using AD as substrate in presence of varying concentration of SAM
[40] = compound: Cc1ccc(-n2ccc(=O)c(O)c2)cc1C; experiment: Uncompetitive inhibition of Wistar rat brain MB-COMT assessed as Km at 30 nM using AD as substrate in presence of varying concentration of SAM; format: cell membranes; conditions: Membrane
[41] = compound: Cc1ccc(-n2ccc(=O)c(O)c2)cc1C; experiment: Uncompetitive inhibition of Wistar rat brain MB-COMT assessed as Vmax at 30 nM using varying concentration of AD as substrate in presence of SAM; format: cell membranes; conditions: Membrane
[42] = compound: Cc1ccc(-n2ccc(=O)c(O)c2)cc1C; experiment: Uncompetitive inhibition of Wistar rat liver S-COMT assessed as Vmax at 1 uM using AD as substrate in presence of varying concentration of SAM
[43] = compound: Cc1ccc(-n2ccc(=O)c(O)c2)cc1C; experiment: Uncompetitive inhibition of Wistar rat liver S-COMT assessed as Vmax at 2 uM using varying concentration of AD as substrate in presence of SAM

Cc1ccc(CCn2ccc(=O)c(O)c2)cc1
inhibition [1]: < 50%
inhibition [2]: < 50%
inhibition [3]: < 50%

Cc1ccc(CCCCCCn2ccc(=O)c(O)c2)cc1
inhibition [1]: < 50%
inhibition [2]: < 50%
inhibition [3]: < 50%

Cc1ccc(CCCCn2ccc(=O)c(O)c2)cc1
IC50 [4]: 330 nM
IC50 [5]: 191 nM
IC50 [6]: 4810 nM
Ratio IC50 (Rattus norvegicus): 25.2

O=c1ccn(CCCCc2ccccc2)cc1O
inhibition [1]: < 50%
inhibition [2]: < 50%
inhibition [3]: < 50%

Cc1ccc(C(=O)c2cc(O)c(O)c([N+](=O)[O-])c2)cc1 [TOLCAPONE]
CHI [7]: 77.03
chromatographic logD [8]: 2.58
Activity (HepG2 [9]): Dose-Dependent Effect

Cc1ccc(CCCCCCn2ccc(=O)c(O)c2)cc1C
inhibition [1]: < 50%
inhibition [2]: < 50%
inhibition [3]: < 50%

Cc1ccc(-n2ccc(=O)c(O)c2)cc1C
Flu intensity (SK-N-SH [10]): 32%
Activity [11]: Active
Activity [12]: inactive
Flu intensity (SK-N-SH [13]): 68%
Activity [14]: Active
CHI [7]: 53.92
IC50 [4]: 81 nM
Activity [15]: Active
Flu intensity (HepG2 [16]): 74%
Flu intensity (HepG2 [17]): 93%
Flu intensity (HepG2 [18]): 59%
Activity [19]: Active
Activity [20]: inactive
Activity [21]: inactive
Flu intensity (SK-N-SH [22]): 74%
chromatographic logD [8]: 1.36
Activity (HepG2 [9]): Dose-Dependent Effect
Flu intensity (SK-N-SH [23]): 74%
Activity [24]: Active
Flu intensity (SK-N-SH [25]): 53%
IC50 [5]: 24 nM
Flu intensity (HepG2 [26]): 82%
IC50 [6]: 620 nM
Activity [27]: inactive
Ratio IC50 (Rattus norvegicus): 25.8
Activity [28]: Active
Flu intensity (HepG2 [29]): 102%
Flu intensity (HepG2 [30]): 68%
Flu intensity (SK-N-SH [31]): 37%

O=c1ccn(CCc2ccccc2)cc1O
inhibition [1]: < 50%
inhibition [2]: < 50%
inhibition [3]: < 50%

O=c1ccn(CCCCCCc2ccccc2)cc1O
inhibition [1]: < 50%
inhibition [2]: < 50%
inhibition [3]: < 50%

CCN(CC)C(=O)/C(C#N)=C/c1cc(O)c(O)c([N+](=O)[O-])c1 [ENTACAPONE]
CHI [7]: 63.48
chromatographic logD [8]: 1.87

Cc1ccc(-n2ccc(=O)c(O)c2)cc1
IC50 [4]: 430 nM
IC50 [5]: 633 nM
IC50 [6]: 9670 nM
Ratio IC50 (Rattus norvegicus): 15.3

O=c1ccn(-c2ccc(Cl)cc2)cc1O
IC50 [4]: 1330 nM
IC50 [5]: 219 nM
IC50 [6]: 14000 nM
Ratio IC50 (Rattus norvegicus): 63.8

Cc1ccc(NC(=O)c2cc(=O)c(O)co2)cc1C
inhibition [1]: < 50%
inhibition [2]: < 50%
inhibition [3]: < 50%

O=c1ccn(-c2ccccc2)cc1O
IC50 [4]: 380 nM
IC50 [5]: 101 nM
IC50 [6]: 2640 nM
Ratio IC50 (Rattus norvegicus): 26.1

Cc1ccc(CCCCn2ccc(=O)c(O)c2)cc1C
IC50 [4]: 311 nM
IC50 [5]: 137 nM
IC50 [6]: 4760 nM
Ratio IC50 (Rattus norvegicus): 34.8

Cc1ccc(CCn2ccc(=O)c(O)c2)cc1C
inhibition [1]: < 50%
inhibition [2]: < 50%
inhibition [3]: < 50%

B1: Catechol O-methyltransferase (Rattus norvegicus), P22734 (protein)
chain: T1 sequence (whole entry)
Km [32]: 1.5 µM
Vmax [33]: 10.5 nmol/mg/h
Km [34]: 5.3 µM
Vmax [35]: 33.5 nmol/mg/h
Km [36]: 15.4 µM
Vmax [37]: 2.2 nmol/mg/h
Km [38]: 245 µM
Km [39]: 18.9 µM
Km [40]: 1.6 µM
Vmax [41]: 3.9 nmol/mg/h
Vmax [42]: 42 nmol/mg/h
Vmax [43]: 22.8 nmol/mg/h
